Assay results as given in patent US20200179369A1, “TREATMENT OF DIABETIC NEPHROPATHY” (TAKEDA GMBH, priority 2015, published 2020).

System: female db/db mice
Assay: HbA1c, 4 weeks treatment in female db/db mice
Assay type: in vivo
Details: 28 days, vehicle 9.06%
Experimental: Female db/db mice were purchased from Taconic (Lille Skensved, Denmark) at 5-6 weeks of age and were maintained under standard conditions (5 animals/cage; 12 h light-dark cycle; room temperature of 22±2° C.; relative humidity of 60±15%). All mice had free access to water and standard chow (Provimi Kliba, Kaiseraugst, Switzerland). Four days upon arrival animals were randomized based on body weight and levels of glycated hemoglobin 1c (HbA1c). At 7 weeks of age, animals were treated daily by oral gavage with vehicle (4% methylcellulose) or with Compound A (composed in aqueous 4% methylcellulose) using doses of 1, 3 and 10 mg/kg s.i.d. (doses related to free base). The required dose was applied in a volume of 10 ml/kg body weight. Each dose group consisted of 10 animals. At the end of the treatment period plasma samples were isolated for determination of HbA1c levels. All experimental procedures were conducted according to the German Animal Protection Law.
HbA1c was analyzed from tail-tip-blood (HbA1c determination before treatment) as well as from blood collected from the retro-orbital venous plexus (HbA1c determination after 4 weeks treatment) using the Hemoglobin A1c Test (Siemens, Bad Nauheim, Germany).
Values are presented as means ±SEM. Statistical differences were determined using one-way-ANOVA followed by a post-hoc analysis with Dunnet's correction (GraphPad Prism).
Definition of significance: n.s.=not significant (p>0.05) • *, **, ***=p<0.05, <0.01, <0.001

CCOc1cc2c(cc1OC)C(c1ccc(=O)n(C)c1)=N[C@@H]1CC[C@@H](O)C[C@H]21 [Compound A, 5-((2R,4aR,10bR)-9-Ethoxy-2-hydroxy-8-methoxy-1,2,3,4,4a,10b-hexahydro-phenanthridin-6-yl)1-methyl-1H-pyridin-2-one]
mean HbA1c (1 mg/kg oral s.i.d.): 7.27% | mean HbA1c (3 mg/kg oral s.i.d.): 7.06% | mean HbA1c (10 mg/kg oral s.i.d.): 6.16%
